EC50 and IC50 data for 19 molecules are collected here from patent publication US20160159774A1 (Celgene Avilomics Research, Inc., priority 2014, published 2016).

In test [1] the target is T1, BTK in Ramos human Burkitt lymphoma cells (Homo sapiens, UniProt Q06187).
T1 construct: Compounds of this invention were assayed in Ramos human Burkitt lymphoma cells; endogenous in cells; host or cells: Ramos human Burkitt lymphoma cells
Description: BTK Ramos cellular assay (BTK occupancy). The format is cell-based. To be noted: concentration producing 50% occupancy of BTK, 1 hour incubation with compound. How it is done: BTK activity in Ramos cells, in the presence of a compound of the invention, can be measured by 3 different methods: 1) inhibition of autophosphorylation of BTK; 2) inhibition of phosphorylation of the immediate BTK surrogate PLCγ2; and 3) BTK occupancy. […] In this instance, BTK occupancy was chosen and is described below.
Compounds of this invention were assayed in Ramos human Burkitt lymphoma cells. Ramos cells were grown in suspension in T175 flasks, spun down, resuspended to a concentration of 2×10^6 cells per mL in serum-free media and incubated for 1 hour. Compound was added to Ramos cells to a final concentration of 500, 166.7, 55.6, 18.5, 6.2, 2.1, and 0.7 nM. Ramos cells were incubated with compound for 1 hour, washed with PBS and lysed in 1004 of BioRad lysis Buffer. Cell lysates were incubated with a biotinylated covalent probe (compound 1-215 disclosed in U.S. published application number 2010/0029610, incorporated by reference in its entirety) at a final concentration of 1 μM in a PBS, 0.05% Tween-20, 1% BSA solution for 1 h at room temperature. Standards and samples were transferred to a streptavidin-coated 96-well ELISA plate and mixed while shaking for 1 h at room temperature. The α-Btk antibody (BD 611116, 1:1000 dilution in PBS+0.05% Tween-20+0.5% BSA) was then added and incubated for 1 h at room temperature. After wash, goat α-mouse-HRP (1:5000 dilution in PBS+0.05% Tween-20+0.5% BSA) was added and incubated for 1 h at room temperature. The ELISA was developed with addition of tetramethyl benzidine (TMB) followed by Stop Solution and read at OD 450 nm. The standard curve (11.7-3000 pg/μL) was generated with human full-length recombinant Btk protein and plotted using a 4 parameter curve fit in Gen5 software. Uninhibited Btk detected from samples was normalized to μg total protein as determined by BCA protein analysis (Pierce Cat. 23225).
The results of this assay show the concentration of compound producing 50% occupancy of BTK. This level of occupancy empirically translates to a level of 50% inhibition of BTK activity (both as measured by autophosphorylation and by phosphorylation of PLCγ2). […] The compound numbers correspond to the compound numbers in the examples.

The next test deals with T2, activated BTK enzyme (Homo sapiens, UniProt Q06187).
T2 construct: purchased Life Technologies PV3363
Nature of the test: Omnia assay for potency assessment against BTK. As to conditions: BTK inhibition assay; [BTK]=5 nM, [ATP]=40 μM, [Y5-Sox]=10 μM. Type of test: biochemical. From the text:
Omnia Assay Protocol for Potency Assessment Against BTK
The protocol below describes an assay to measure potency of compounds against the activated BTK enzyme. The mechanics of the assay platform are best described by the vendor (Life Technologies, Carlsbad, Calif.) on their website at the following URLs: www.lifetechnologies.com/us/en/home/life-science/drug-discovery/target-and-lead-identification-and-validation/kinasebiology/kinase-activity-assays/omnia-kinase-assays/omnia-kinase-principle.html and tools.lifetechnologies.com/content/sfs/manuals/omnia_kinase_assay_man.pdf
Briefly, 10× stocks of BTK (PV3363) from Life Technologies, 1.13×ATP (AS00lA) and Sox conjugated peptide substrates, Y5-Sox, (KZN305l) were prepared in 1× kinase reaction buffer consisting of 20 mM Tris, pH 7.5, 5 mM MgCl2, 1 mM EGTA, 5 mM (3-glycerophosphate, 5% glycerol (10× stock, KB002A) and 0.2 mM DTT (DS00lA). 5 μL of each enzyme were pre-incubated in a Corning (#3574) 384-well, white, non-binding surface microtiter plate (Corning, N.Y.) for 30 min. at room temperature with a 0.5 μL volume of 50% DMSO or serially diluted compounds prepared in 50% DMSO. Kinase reactions were started with the addition of […] of the ATP/Tyr-Sox peptide substrate Y5 mix and monitored every 71 seconds for 60 minutes at λex360/λem485 in a Synergy4 plate reader from BioTek (Winooski, Vt.). At the conclusion of each assay, progress curves from each well were examined for linear reaction kinetics and fit statistics (R2, 95% confidence interval, absolute sum of squares). Initial velocity (0 minutes to ˜30 minutes) from each reaction was determined from the slope of a plot of relative fluorescence units vs time (minutes) and then plotted against inhibitor concentration to estimate IC50 from log [Inhibitor] vs Response, Variable Slope model in GraphPad Prism from GraphPad Software (San Diego, Calif.).
Reagent conditions for the assay are:
[BTK]=5 nM, [ATP]=40 μM, [Y5-Sox]=10 μM (ATP KMapp˜36 μM).
The compound numbers correspond to the compound numbers in the examples.

T1 sequence (Q06187 whole entry): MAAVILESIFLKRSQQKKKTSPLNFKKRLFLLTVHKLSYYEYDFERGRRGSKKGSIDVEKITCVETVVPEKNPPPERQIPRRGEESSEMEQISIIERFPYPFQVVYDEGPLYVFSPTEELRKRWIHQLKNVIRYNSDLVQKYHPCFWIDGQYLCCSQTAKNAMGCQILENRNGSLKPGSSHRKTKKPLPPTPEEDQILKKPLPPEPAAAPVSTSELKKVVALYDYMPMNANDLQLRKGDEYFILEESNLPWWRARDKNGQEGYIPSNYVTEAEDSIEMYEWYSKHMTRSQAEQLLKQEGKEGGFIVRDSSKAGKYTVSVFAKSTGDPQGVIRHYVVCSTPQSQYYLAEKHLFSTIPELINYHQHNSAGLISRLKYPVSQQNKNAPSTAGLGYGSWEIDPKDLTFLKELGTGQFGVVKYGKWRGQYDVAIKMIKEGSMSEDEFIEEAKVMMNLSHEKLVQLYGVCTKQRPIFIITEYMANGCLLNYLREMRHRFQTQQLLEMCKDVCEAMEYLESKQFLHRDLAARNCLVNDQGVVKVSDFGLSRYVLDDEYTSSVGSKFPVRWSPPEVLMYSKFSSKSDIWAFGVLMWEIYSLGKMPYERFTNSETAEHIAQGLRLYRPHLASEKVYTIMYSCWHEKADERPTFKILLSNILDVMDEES
T2 sequence (Q06187 whole entry): as above

One may read the EC50 as the concentration giving half of the maximal effect. Broadly, the IC50 is the concentration at which inhibition is half-maximal. Turning to `C=CC(=O)N1CCC[C@@H](Nc2nc(Nc3ccc4c(c3)CN(C(C)=O)C4)ncc2F)C1` [Compound I-3, (R)-1-(3-((2-((2-Acetylisoindolin-5-yl)amino)-5-fluoropyrimidin-4-yl)amino)-piperidin-1-yl)prop-2-en-1-one], the EC50 in test [1] lay within 101 to 1000 nM. Further, on activated BTK enzyme, the IC50 was less than 10 nM.

Consider `C=CC(=O)N1CCC[C@@H](Nc2nc(Nc3ccc4c(c3)CN(CCF)C4)ncc2F)C1` [Compound I-39, (R)-1-(3-((5-Fluoro-2-((2-(2-fluoroethyl)isoindolin-5-yl)amino)pyrimidin-4-yl)amino)piperidin-1-yl)prop-2-en-1-one], for which, in test [1], the EC50 lay in the range of 10 to 100 nM. Moreover, on activated BTK enzyme, the IC50 is less than 10 nM.

For the molecule `C=CC(=O)N1CCC[C@@H](Nc2nc(Nc3ccc4c(c3)CCNCC4)ncc2F)C1` [Compound I-57, (R)-1-(3-(5-Fluoro-2-(2,3,4,5-tetrahydro-1H-benzo[d]azepin-7-ylamino)pyrimidin-4-ylamino)piperidin-1-yl)prop-2-en-1-one], the EC50 in test [1] is 10 to 100 nM. Also, the IC50 at activated BTK enzyme was less than 10 nM.

For `C=CC(=O)N1CCC[C@@H](Nc2nc(Nc3ccc4c(c3)CN(CC3CCN(C(C)=O)CC3)C4)ncc2F)C1` [Compound I-10], the EC50 in test [1] is 10 to 100 nM. Moreover, the IC50 on activated BTK enzyme is less than 10 nM.

Turning to `C=CC(=O)N1CCC[C@@H](Nc2nc(Nc3ccc4c(c3)CCN(C3CC3)CC4)ncc2F)C1` [Compound I-60, (R)-1-(3-(2-(3-Cyclopropyl-2,3,4,5-tetrahydro-1H-benzo[d]azepin-7-ylamino)-5-fluoropyrimidin-4-ylamino)piperidin-1-yl)prop-2-en-1-one], the concentration for a half-maximal effect (EC50) in test [1] lay in the range of 10 to 100 nM. Besides, at activated BTK enzyme, the IC50 was less than 10 nM.

Take `C=CC(=O)N1CCC[C@@H](Nc2nc(Nc3ccc4c(c3)CN(CC(F)(F)F)C4)ncc2F)C1` [Compound I-22, (R)-1-(3-((5-fluoro-2-((2-(2,2,2-trifluoroethyl)isoindolin-5-yl)amino)pyrimidin-4-yl)amino)piperidin-1-yl)prop-2-en-1-one]: in test [1], the EC50 was 10 to 100 nM. For the same molecule, on activated BTK enzyme, the IC50 is less than 10 nM.

For `C=CC(=O)N1CCC[C@@H](Nc2nc(Nc3ccc4c(c3)CN(C(C)C)C4)ncc2F)C1` [Compound I-17, (R)-1-(3-((5-Fluoro-2-((2-isopropylisoindolin-5-yl)amino)pyrimidin-4-yl)amino)piperidin-1-yl)prop-2-en-1-one], the EC50 in test [1] was less than 10 nM. Further, the IC50 at activated BTK enzyme is less than 10 nM.

`C=CC(=O)N1CCC[C@@H](Nc2nc(Nc3ccc4c(c3)CN(C3(C)CCOCC3)C4)ncc2F)C1` [Compound I-40, (R)-1-(3-(5-Fluoro-2-(2-(4-methyltetrahydro-2H-pyran-4-yl)isoindolin-5-ylamino)pyrimidin-4-ylamino)piperidin-1-yl)prop-2-en-1-one]: the EC50 in test [1] is less than 10 nM. Moreover, the IC50 on activated BTK enzyme is less than 10 nM.

`C=CC(=O)N1CCC[C@@H](Nc2nc(Nc3ccc4c(c3)CNCCC4)ncc2F)C1` [Compound I-53, (R)-1-(3-(5-Fluoro-2-(2,3,4,5-tetrahydro-1H-benzo[c]azepin-8-ylamino)pyrimidin-4-ylamino)piperidin-1-yl)prop-2-en-1-one]: in test [1], the EC50 is less than 10 nM. At activated BTK enzyme, the IC50 is less than 10 nM.

With `C=CC(=O)N1CCC[C@@H](Nc2nc(Nc3ccc4c(c3)CN(C3CCN(C)CC3)C4)ncc2F)C1` [Compound I-7, (R)-1-(3-((5-Fluoro-2-((2-(1-methylpiperidin-4-yl)isoindolin-5-yl)amino)-pyrimidin-4-yl)amino)piperidin-1-yl)prop-2-en-1-one], the EC50 in test [1] was 10 to 100 nM. In addition, the IC50 on activated BTK enzyme is less than 10 nM.

Take `C=CC(=O)N1CCC[C@@H](Nc2nc(Nc3ccc4c(c3)CN(C3COC3)C4)ncc2F)C1` [Compound I-13, (R)-1-(3-((5-Fluoro-2-((2-(oxetan-3-yl)isoindolin-5-yl)amino)pyrimidin-4-yl)amino)piperidin-1-yl)prop-2-en-1-one]: in test [1], the EC50 was in the range of 10 to 100 nM. In addition, the IC50 on activated BTK enzyme is less than 10 nM.

Regarding `C=CC(=O)N1CCC[C@@H](Nc2nc(Nc3ccc4c(c3)CN(C)C4)ncc2F)C1` [Compound I-2, (R)-1-(3-((5-Fluoro-2-((2-methylisoindolin-5-yl)amino)pyrimidin-4-yl)amino)piperidin-1-yl)prop-2-en-1-one], the EC50 in test [1] was less than 10 nM. In addition, the IC50 on activated BTK enzyme is less than 10 nM.

On to `C=CC(=O)N1CCC[C@@H](Nc2nc(Nc3ccc4c(c3)CN(C3CCC3)C4)ncc2F)C1` [Compound I-18, (R)-1-(3-((2-((2-Cyclobutylisoindolin-5-yl)amino)-5-fluoropyrimidin-4-yl)amino)piperidin-1-yl)prop-2-en-1-one], for which the EC50 in test [1] was less than 10 nM. Also, at activated BTK enzyme, the IC50 was less than 10 nM.

As to `C=CC(=O)N1CCC[C@@H](Nc2nc(Nc3ccc4c(c3)CN(CC3CCOCC3)C4)ncc2F)C1` [Compound I-11, (R)-1-(3-(5-Fluoro-2-(2-((tetrahydro-2H-pyran-4-yl)methyl)isoindolin-5-ylamino)pyrimidin-4-ylamino)piperidin-1-yl)prop-2-en-1-one], the EC50 in test [1] is less than 10 nM. Further, at activated BTK enzyme, the IC50 is less than 10 nM.

Consider `C=CC(=O)N1CCC[C@@H](Nc2nc(Nc3ccc4c(c3)CN(c3ccc(F)cc3)C4)ncc2F)C1` [Compound I-24, (R)-1-(3-((5-fluoro-2-((2-(4-fluorophenyl)isoindolin-5-yl)amino)pyrimidin-4-yl)amino)piperidin-1-yl)prop-2-en-1-one], for which the EC50 in test [1] was 101 to 1000 nM. On activated BTK enzyme, the IC50 was less than 10 nM.

On to `C=CC(=O)N1CCC[C@@H](Nc2nc(Nc3ccc4c(c3)CN(C3CCOCC3)C4)ncc2F)C1` [Compound I-12, (R)-1-(3-((5-Fluoro-2-((2-(tetrahydro-2H-pyran-4-yl)isoindolin-5-yl)amino)-pyrimidin-4-yl)amino)piperidin-1-yl)prop-2-en-1-one], for which the EC50 in test [1] was in the range of 10 to 100 nM. Besides, the IC50 on activated BTK enzyme is less than 10 nM.

Regarding `C=CC(=O)N1CCC[C@@H](Nc2nc(Nc3ccc4c(c3)CN(CC3CCNCC3)C4)ncc2F)C1` [Compound I-6, (R)-1-(3-((5-Fluoro-2-((2-(piperidin-4-ylmethyl)isoindolin-5-yl)amino)pyrimidin-4-yl)amino)piperidin-1-yl)prop-2-en-1-one], the EC50 in test [1] is 101 to 1000 nM. Also, the IC50 at activated BTK enzyme was less than 10 nM.

As to `C=CC(=O)N1CCC[C@@H](Nc2nc(Nc3ccc4c(c3)CNCC4)ncc2F)C1` [Compound I-33, (R)-1-(3-(5-fluoro-2-(1,2,3,4-tetrahydroisoquinolin-7-ylamino)pyrimidin-4-ylamino)-piperidin-1-yl)prop-2-en-1-one], in test [1], the 50% effective concentration (EC50) is less than 10 nM. At activated BTK enzyme, the IC50 is less than 10 nM.

Regarding `C=CC(=O)N1CCC[C@@H](Nc2nc(Nc3ccc4c(c3)CN(C)CCC4)ncc2F)C1` [Compound I-55, (R)-1-(3-(5-Fluoro-2-(2-methyl-2,3,4,5-tetrahydro-1H-benzo[c]azepin-8-ylamino)pyrimidin-4-ylamino)piperidin-1-yl)prop-2-en-1-one], in test [1], the EC50 lay within 10 to 100 nM. Besides, at activated BTK enzyme, the IC50 was less than 10 nM.
